Measurements as given in patent US11932634B2 (Gilead Sciences, Inc., priority 2021, dated 2024).

How the values were obtained:
[1] = system: Jurkat NFκB-luciferase cells; assay: Jurkat NFκB-Luciferase Assay; type: cell-based; conditions: Homo sapiens; Jurkat NFκB-luciferase cells activated with anti-CD3 antibody (OKT3), 2.5 hrs at 37° C., One-Glo Ex; geometric mean; read-out: DGK NFKb Luciferase EC50;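 also: bioluminescence read-out normalized to DMSO basal activation and to maximum enhancement at 1 µM compound, rising signal indicating stronger T-cell activation through DGKα inhibition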
Description: The activity of compounds was tested in a cell based NFκB reporter assay. Jurkat cells that are stably expressing a luciferase reporter construct under the transcriptional control of a NFκB reporter element were activated with an anti-CD3 antibody and luciferase levels were measured with a bioluminescence readout.
The day after, the excess antibody was washed out five times with 100 ul/well of assay medium (RPMI supplemented with 10% fetal bovine serum) using a Biotek EL406 instrument and leaving 20 µl of residual volume in each well. Jurkat NFκB-luciferase cells (Promega #) were harvested and diluted to 1 million cells/ml in assay medium. Sixty nanoliters of test compound dissolved in DMSO at various concentrations were dispensed into 384-well v-bottom polypropylene plates (Greiner) using a Labcyte Echo instrument. Thirty microliters of medium containing the Jurkat NFκB-luciferase cells were then dispensed using a Biotek MicroFlo instrument in each well of the compound-containing plate. The medium/cell/compound mixture was mixed with a Bravo instrument and 20 ul/well of the mixture was transferred to the anti-CD3-coated plate. The assay mixture was then incubated for 2.5 hrs at 37° C. followed by equilibration at 25° C. for 30 min. Forty microliters of One-Glo Ex (Promega) was then added to the assay mixture and luciferase activity was read on a Envision plate reader 7 minutes later.
Bioluminescence data were normalized based on maximum enhancement (1 micromolar of compound) and on basal activation (DMSO) controls. Least squares curve fittings were performed using a four-parameter variable slope nonlinear regression model. […] EC50 values from multiple experiments were averaged by geometric mean and the standard deviation was calculated.

human DGKα = molecular target: T1, human DGKα (Homo sapiens, UniProt P23743); assay: DGKα Biochemical Activity Assay (ADP-Glo);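 also: recombinant enzyme converting diacylglycerol in lipid micelles with ATP, ADP formed detected by luminescence, IC50 from a four-parameter nonlinear fit, geometric mean across experiments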
T1 construct: purchased Carna Biosciences'; inferred from the same paragraph's 'obtained from Carna Biosciences')
T1 sequence (P23743 whole entry): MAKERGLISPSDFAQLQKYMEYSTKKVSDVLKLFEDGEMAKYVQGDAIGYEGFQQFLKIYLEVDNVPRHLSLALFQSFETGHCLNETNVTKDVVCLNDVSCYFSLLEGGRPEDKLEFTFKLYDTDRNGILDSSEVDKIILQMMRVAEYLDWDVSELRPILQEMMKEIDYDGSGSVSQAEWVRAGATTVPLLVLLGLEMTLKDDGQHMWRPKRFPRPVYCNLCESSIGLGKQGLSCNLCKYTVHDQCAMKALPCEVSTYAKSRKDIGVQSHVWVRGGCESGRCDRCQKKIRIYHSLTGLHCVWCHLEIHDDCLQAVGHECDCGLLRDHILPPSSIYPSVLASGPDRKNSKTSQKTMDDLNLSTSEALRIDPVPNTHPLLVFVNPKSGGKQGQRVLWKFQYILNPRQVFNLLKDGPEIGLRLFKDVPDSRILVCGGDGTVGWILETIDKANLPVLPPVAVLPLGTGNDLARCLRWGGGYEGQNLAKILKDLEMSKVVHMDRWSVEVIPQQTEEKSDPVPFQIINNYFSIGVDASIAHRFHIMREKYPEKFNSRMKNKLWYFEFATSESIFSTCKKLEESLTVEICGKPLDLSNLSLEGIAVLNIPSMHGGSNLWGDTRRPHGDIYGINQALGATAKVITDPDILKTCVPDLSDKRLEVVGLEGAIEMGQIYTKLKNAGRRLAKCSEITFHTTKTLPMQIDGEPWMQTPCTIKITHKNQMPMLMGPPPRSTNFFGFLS
Excerpt: Alternatively, the enzymatic activity of human DGKα was monitored in a biochemical assay in the presence or absence of compounds and using micelles containing 18:1 Diacylglycerol (DAG), 16:0-18:1 PS (POPS) and Octylglucoside as substrate. DGKα activity led to conversion of DAG and ATP to Phosphatidic Acid (PA) and ADP. Levels of ADP were monitored by bioluminescence using the ADP-Glo Kinase Assay (Promega) and were indicative of DGKα activity.
Ten nanoliters of test compound dissolved in DMSO at various concentrations were dispensed into a 384-well low volume nonbinding service white plates (Corning #3824) using a Labcyte Echo instrument. Recombinant DGKα Biosciences) in assay buffer (5 μL in 50 mM MOPS [3-(N-morpholino) propanesulfonic acid], pH 7.2; 0.0025% Triton X-100; 1 mM dithiothreitol; 5 mM MgCl2, 200 μM ATP) was added to the compound-containing plate and was incubated for 15 minutes at 25° C. A substrate solution (5 μL in 1.7 mM 1,2-dioleoyl-sn-glycerol [18:1 DAG], 13.5 mM 1-palmitoyl-2-oleoyl-sn-glycero-3-phospho-L-serine [16:0-18:1 PS](POPS), 2 μM CaCl2), 100 mM Octylglucoside (OG), 1 mM DTT) (obtained from Carna Biosciences) diluted in DGK ALPHA assay buffer was then added to start the reaction. Final concentrations were 1 nM DGKα, 100 μM ATP, 1 μM calcium chloride, 0.85 mM 1,2-dioleoyl-sn-glycerol (18:1 DAG), 6.75 mM 1-palmitoyl-2-oleoyl-sn-glycero-3-phospho-L-serine (16:0-18:1 PS) (POPS), 1 μM CaCl2), 50 mM Octylglucoside (OG) and 5 mM MgCl2. The reaction mixture was incubated at 25° C. for 1 hour. ADP-Glo Reagent (10 μL, 10 mM Mg added) provided by the kit was added to each well and incubated at 25° C. for 40 minutes. Then, 20 μL of Kinase Detection Reagent was added and incubated at 25° C. for 40 minutes. Luciferase activity of each well was measured via luminescence on an Envision plate reader (PerkinElmer).
Least squares curve fittings were performed using a four-parameter variable slope nonlinear regression model. […] IC50 values from multiple experiments were averaged by geometric mean and the standard deviation was calculated.

Row | Compound | EC50 [1] [nM] | IC50 (human DGKα) [nM]
1 | CC(F)(F)C1(C#Cc2cccc3c2COCCN3c2nc(=O)[nH]c3c(F)ccc(F)c23)CC1 [Example 147] | 2.84 | 51.9
2 | O=c1nc(N2CCCCc3c(Br)cncc32)c2c(F)c(F)ccc2[nH]1 [Example 148, 4-(6-bromo-2,3,4,5-tetrahydro-1H-pyrido[3,4-b]azepin-1-yl)-5,6-difluoroquinazolin-2(1H)-one] | 2.77 | 44.1
3 | O=c1nc(N2CCCCc3c(Br)cncc32)c2c(F)cccc2[nH]1 [Example 149, 4-(6-bromo-2,3,4,5-tetrahydro-1H-pyrido[3,4-b]azepin-1-yl)-5-fluoroquinazolin-2(1H)-one] | 34.1 | 150
4 | CC1(C#Cc2cncc3c2CCCCN3c2nc(=O)[nH]c3ccc(F)c(F)c23)CC1 [Example 150, 5,6-difluoro-4-(6-((1-methylcyclopropyl)ethynyl)-2,3,4,5-tetrahydro-1H-pyrido[3,4-b]azepin-1-yl)quinazolin-2(1H)-one] | 0.826 | 11.2
5 | O=c1nc(N2CCCCc3c(C#CC4(C(F)(F)F)CC4)cncc32)c2c(F)c(F)ccc2[nH]1 [Example 151, 5,6-difluoro-4-(6-((1-(trifluoromethyl)cyclopropyl)ethynyl)-2,3,4,5-tetrahydro-1H-pyrido[3,4-b]azepin-1-yl)quinazolin-2(1H)-one] | 0.954 | 18
6 | CC1(C#Cc2cncc3c2CCCCN3c2nc(=O)[nH]c3cccc(F)c23)CC1 [Example 152, 5-fluoro-4-(6-((1-methylcyclopropyl)ethynyl)-2,3,4,5-tetrahydro-1H-pyrido[3,4-b]azepin-1-yl)quinazolin-2(1H)-one] | 0.679 | 16.2
7 | CC(C)(O)C#Cc1cccc2c1COCCN2c1nc(=O)[nH]c2c(F)ccc(F)c12 [Example 155] | 53.8 | 16.2
8 | O=c1nc(N2CCCCc3c(C#CC4(C(F)(F)F)CC4)cccc32)c2c(F)cccc2[nH]1 [Example 156, 5-fluoro-4-(6-((1-(trifluoromethyl)cyclopropyl)ethynyl)-2,3,4,5-tetrahydro-1H-benzo[b]azepin-1-yl)quinazolin-2(1H)-one] | 0.308 | 22.6
9 | CC1(C#Cc2cccc3c2CCCCN3c2nc(=O)[nH]c3cccc(F)c23)CC1 [Example 157, 5-fluoro-4-(6-((1-methylcyclopropyl)ethynyl)-2,3,4,5-tetrahydro-1H-benzo[b]azepin-1-yl)quinazolin-2(1H)-one] | 0.58 | 26
10 | CC(C)(C#Cc1cccc2c1COCCN2c1nc(=O)[nH]c2cccc(F)c12)NC(=O)C1(C(F)(F)F)CC1 [Example 158, N-(4-(1-(5-fluoro-2-oxo-1,2-dihydroquinazolin-4-yl)-1,2,3,5-tetrahydrobenzo[e][1,4]oxazepin-6-yl)-2-methylbut-3-yn-2-yl)-1-(trifluoromethyl)cyclopropane-1-carboxamide] | 11 | 9.31
11 | [2H]C([2H])([2H])n1c(=O)nc(N2CCCc3c(C#CC4(C)CC4)cncc32)c2c(F)c(F)ccc21 [Example 159, 5,6-difluoro-1-(methyl-d3)-4-(5-((1-methylcyclopropyl)ethynyl)-3,4-dihydro-1,7-naphthyridin-1(2H)-yl)quinazolin-2(1H)-one] | 0.685 | 2.03
12 | [2H]C([2H])([2H])n1c(=O)nc(N2CCCc3c(C#CC4(C(F)(F)F)CC4)cncc32)c2c(F)c(F)ccc21 [Example 160, 5,6-difluoro-1-(methyl-d3)-4-(5-((1-(trifluoromethyl)cyclopropyl)ethynyl)-3,4-dihydro-1,7-naphthyridin-1(2H)-yl)quinazolin-2(1H)-one] | 0.936 | 5.36
13 | [2H]C([2H])([2H])n1c(=O)nc(N2CCCc3c(C#CC4CCCN4C)cccc32)c2c(F)cccc21 (centres unmarked) [Example 161, 5-fluoro-4-[5-[2-(1-methylpyrrolidin-2-yl)ethynyl]-3,4-dihydro-2H-quinolin-1-yl]-1-(trideuteriomethyl)quinazolin-2-one] | 2.8 | 16.7
